These results are taken from patent US10077247B2, “Tricyclic spiro compound” (ONO PHARMACEUTICAL CO., LTD., priority 2015, dated 2018).

For one series, the target named is rat EP4 receptor (Rattus norvegicus (Rat), UniProt P43114). Nature of the series: EP4 antagonistic activity measurement using prostanoid receptor subtype expressing cells (cAMP). Type of series: cell-based. To be noted: CHO cells expressing rat EP4 receptor; inhibition of cAMP production by PGE2 10 nM. The protocol:
CHO cells expressing rat EP4 receptor subtypes were prepared according to the methods of Nishigaki et al. (FEBS Letters, Vol. 364, p. 339-341, 1995), and used for experiment. Cultured subconfluent cells were detached, and suspended in an assay medium (MEM containing 1 mmol/L IBMX, 1% HSA) in a concentration of 1×10^6 cells/mL. For reaction, PGE2 was added to the cell suspension (25 μL) in a final concentration of 10 nmol/L, either alone or as a 25-μL PGE2 solution containing the test compound. After 30 minutes of reaction at room temperature, the amount of cAMP in the cells was quantified according to the method in the descriptions of the cAMP assay kit (CISBIO).
The antagonistic effect (IC50 value) of the test compound was calculated as a value that represents an inhibition rate against a reaction with PGE2 alone at 10 nM, a concentration that produces a submaximal cAMP producing effect.

A short description of series [1]: Pharmacokinetics test (hepatic microsome stability test). Particulars: human hepatic microsome 1 mg/mL, 37° C., 60 min, 1 μmol/L.

Chain of rat EP4 receptor (P43114 whole entry): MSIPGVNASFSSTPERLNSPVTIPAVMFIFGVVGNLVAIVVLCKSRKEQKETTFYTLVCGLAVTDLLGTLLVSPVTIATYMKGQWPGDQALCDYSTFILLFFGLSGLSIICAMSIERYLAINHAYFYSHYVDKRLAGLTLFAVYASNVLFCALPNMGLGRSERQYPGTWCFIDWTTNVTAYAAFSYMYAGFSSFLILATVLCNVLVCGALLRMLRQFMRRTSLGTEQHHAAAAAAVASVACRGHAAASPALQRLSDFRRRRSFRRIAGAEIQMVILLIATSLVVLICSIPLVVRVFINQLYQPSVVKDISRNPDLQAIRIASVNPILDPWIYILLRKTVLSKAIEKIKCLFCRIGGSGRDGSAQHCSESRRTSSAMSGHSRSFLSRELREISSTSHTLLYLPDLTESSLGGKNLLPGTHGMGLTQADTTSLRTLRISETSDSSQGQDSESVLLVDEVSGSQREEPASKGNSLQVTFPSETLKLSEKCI

The compound `Cc1noc(-c2ccc3c(c2)[C@]2(CCO3)C[C@H]2C(=O)Nc2cc(C#N)ccc2CCCC(=O)O)n1` [Example 5, 4-[4-Cyano-2-({[(2′R,4S)-6-(3-methyl-1,2,4-oxadiazol-5-yl)-2,3-dihydrospiro[chromene-4,1′-cyclopropan]-2′-yl]carbonyl}amino)phenyl]butanoic acid] returned a half-inhibitory concentration (IC50) against rat EP4 receptor of 2.8 nM. The “Remaining rate (%)” value in series [1] came to 80%.

Compound `N#Cc1ccc(CCCC(=O)O)c(NC(=O)[C@@H]2C[C@]23CCOc2ccc(-c4ccccc4)cc23)c1` [Example 7-1, 4-[4-Cyano-2-({[(2′R,4S)-6-phenyl-2,3-dihydrospiro[chromene-4,1′-cyclopropan]-2′-yl]carbonyl}amino)phenyl]butanoic acid] had a half-inhibitory concentration (IC50) against rat EP4 receptor of 17 nM. Also, the “Remaining rate (%)” value in series [1] stood at 81%.

In turn, `N#Cc1ccc(CCCC(=O)O)c(NC(=O)[C@@H]2C[C@]23CCOc2ccc(-c4cccnc4)cc23)c1` [Example 7-3, 4-[4-Cyano-2-({[(2′R,4S)-6-(3-pyridinyl)-2,3-dihydrospiro[chromene-4,1′-cyclopropan]-2′-yl]carbonyl}amino)phenyl]butanoic acid] showed an IC50 against rat EP4 receptor of 3.8 nM. Also, the “Remaining rate (%)” value in series [1] was 72%.

Regarding `N#Cc1ccc(CCCC(=O)O)c(NC(=O)[C@@H]2C[C@]23CCOc2ccc(-n4cccn4)cc23)c1` [Example 7-4, 4-[4-Cyano-2-({[(2′R,4S)-6-(1H-pyrazol-1-yl)-2,3-dihydrospiro[chromene-4,1′-cyclopropan]-2′-yl]carbonyl}amino)phenyl]butanoic acid], at rat EP4 receptor, the IC50 is 2.4 nM. Also, the “Remaining rate (%)” value in series [1] turned out to be 71%.

As for `N#Cc1ccc(CCCC(=O)O)c(NC(=O)[C@@H]2C[C@]23CCOc2ccc(N4CCCC4=O)cc23)c1` [Example 7-10, 4-[4-Cyano-2-({[(2′R,4S)-6-(2-oxo-1-pyrrolidinyl)-2,3-dihydrospiro[chromene-4,1′-cyclopropan]-2′-yl]carbonyl}amino)phenyl]butanoic acid], at rat EP4 receptor, the IC50 came out at 8.6 nM. Further, the “Remaining rate (%)” value in series [1] amounted to 89%.

As for `COc1ccc(-c2ccc3c(c2)[C@]2(CCO3)C[C@H]2C(=O)Nc2cc(C#N)ccc2CCCC(=O)O)cn1` [Example 7-13, 4-[4-Cyano-2-({[(2′R,4S)-6-(6-methoxy-3-pyridinyl)-2,3-dihydrospiro[chromene-4, 1′-cyclopropan]-2′-yl]carbonyl}amino)phenyl]butanoic acid], 3.5 nM corresponded to half-maximal inhibition against rat EP4 receptor (IC50). For the same compound, in series [1], the “Remaining rate (%)” value is given as 95%.

`Cc1ccc(-c2ccc3c(c2)[C@]2(CCO3)C[C@H]2C(=O)Nc2cc(C#N)ccc2CCCC(=O)O)cn1` [Example 7-16, 4-[4-Cyano-2-({[(2′R,4S)-6-(6-methyl-3-pyridinyl)-2,3-dihydrospiro[chromene-4,1′-cyclopropan]-2′-yl]carbonyl}amino)phenyl]butanoic acid] returned an IC50 at rat EP4 receptor of 5.7 nM. The “Remaining rate (%)” value in series [1] came out at 80%.

In turn, `N#Cc1ccc(CCCC(=O)O)c(NC(=O)[C@@H]2C[C@]23CCOc2ccc(-c4ccc(F)nc4)cc23)c1` [Example 7-17, 4-[4-Cyano-2-({[(2′R,4S)-6-(6-fluoro-3-pyridinyl)-2,3-dihydrospiro[chromene-4, 1′-cyclopropan]-2′-yl]carbonyl}amino)phenyl]butanoic acid] registered a half-inhibitory concentration (IC50) against rat EP4 receptor of 6.1 nM. The “Remaining rate (%)” value in series [1] is on record as 82%.

Compound `N#Cc1ccc(CCCC(=O)O)c(NC(=O)[C@@H]2C[C@]23CCOc2ccc(-c4cnc5[nH]ccc5c4)cc23)c1` [Example 7-19, 4-[4-Cyano-2-({[(2′R,4S)-6-(1H-pyrrolo[2,3-b]pyridin-5-yl)-2,3-dihydrospiro[chromene-4,1′-cyclopropan]-2′-yl]carbonyl}amino)phenyl]butanoic acid] had a concentration for half-maximal inhibition (IC50) against rat EP4 receptor of 4.5 nM. In addition, in series [1], the “Remaining rate (%)” value was found to be 100%.

Compound `CNc1ccc(-c2ccc3c(c2)[C@]2(CCO3)C[C@H]2C(=O)Nc2cc(C#N)ccc2CCCC(=O)O)cn1` [Example 7-21, 4-{4-Cyano-2-[({(2′R,4S)-6-[6-(methylamino)-3-pyridinyl]-2,3-dihydrospiro[chromene-4,1′-cyclopropan]-2′-yl}carbonyl)amino]phenyl}butanoic acid] yielded an IC50 at rat EP4 receptor of 10 nM. Further, the “Remaining rate (%)” value in series [1] is 76%.

At rat EP4 receptor, `N#Cc1ccc(CCCC(=O)O)c(NC(=O)[C@@H]2C[C@]23CCOc2ccc(-c4ncco4)cc23)c1` [Example 10-3, 4-[4-Cyano-2-({[(2′R,4S)-6-(1,3-oxazol-2-yl)-2,3-dihydrospiro[chromene-4,1′-cyclopropan]-2′-yl]carbonyl}amino)phenyl]butanoic acid] displayed a half-maximal inhibitory concentration (IC50) of 5.7 nM. Moreover, in series [1], the “Remaining rate (%)” value came out at 87%.

With `Cn1cc(-c2ccc3c(c2)[C@]2(CCO3)C[C@H]2C(=O)Nc2cc(C#N)ccc2CCCC(=O)O)nn1` [Example 10-4, 4-[4-Cyano-2-({[(2′R,4S)-6-(1-methyl-1H-1,2,3-triazol-4-yl)-2,3-dihydrospiro[chromene-4,1′-cyclopropan]-2′-yl]carbonyl}amino)phenyl]butanoic acid], on rat EP4 receptor, the midpoint of inhibition, the IC50, lay at 3.5 nM. Moreover, in series [1], the “Remaining rate (%)” value stood at 73%.

At rat EP4 receptor, `N#Cc1ccc(CCCC(=O)O)c(NC(=O)[C@@H]2C[C@]23CCOc2ccc(-c4cccnn4)cc23)c1` [Example 10-5, 4-[4-Cyano-2-({[(2′R,4S)-6-(3-pyridazinyl)-2,3-dihydrospiro[chromene-4, 1′-cyclopropan]-2′-yl]carbonyl}amino)phenyl]butanoic acid] yielded an IC50 of 4.1 nM. Moreover, in series [1], the “Remaining rate (%)” value is reported as 86%.

`N#Cc1ccc(CCCC(=O)O)c(NC(=O)[C@@H]2C[C@]23CCOc2ccc(-c4ccc(F)cn4)cc23)c1` [Example 10-9, 4-[4-Cyano-2-({[(2′R,4S)-6-(5-fluoro-2-pyridinyl)-2,3-dihydrospiro[chromene-4,1′-cyclopropan]-2′-yl]carbonyl}amino)phenyl]butanoic acid] had an IC50 against rat EP4 receptor of 6.7 nM. The “Remaining rate (%)” value in series [1] is on record as 75%.

At rat EP4 receptor, `CNC(=O)c1ccc2c(c1)[C@]1(CC2)C[C@H]1C(=O)Nc1cc(C#N)ccc1CCCC(=O)O` [Example 18-1, 4-[4-Cyano-2-({[(1R,2R)-6′-(methylcarbamoyl)-2′,3′-dihydrospiro[cyclopropane-1, 1′-inden]-2-yl]carbonyl}amino)phenyl]butanoic acid] came in with a half-maximal inhibitory concentration (IC50) of 1.2 nM. In series [1], the “Remaining rate (%)” value is listed as 90%.

Turning to `COCCNC(=O)c1ccc2c(c1)[C@]1(CC2)C[C@H]1C(=O)Nc1cc(C#N)ccc1CCCC(=O)O` [Example 18-2, 4-{4-Cyano-2-[({(1R,2R)-6′-[(2-methoxyethyl)carbamoyl]-2′,3′-dihydrospiro[cyclopropane-1,1′-inden]-2-yl}carbonyl)amino]phenyl}butanoic acid], on rat EP4 receptor, the IC50 worked out at 3 nM. The “Remaining rate (%)” value in series [1] is recorded as 100%.

As for `Cn1cc(NC(=O)c2ccc3c(c2)[C@]2(CC3)C[C@H]2C(=O)Nc2cc(C#N)ccc2CCCC(=O)O)cn1` [Example 18-3, 4-{4-Cyano-2-[({(1R,2R)-6′-[(1-methyl-1H-pyrazol-4-yl)carbamoyl]-2′,3′-dihydrospiro[cyclopropane-1,1′-inden]-2-yl}carbonyl)amino]phenyl}butanoic acid], the IC50 on rat EP4 receptor stood at 2.7 nM. In series [1], the “Remaining rate (%)” value was 91%.

`CNC(=O)c1cc2c(cc1F)OCC[C@]21C[C@H]1C(=O)Nc1cc(C#N)ccc1CCCC(=O)O` [Example 20-1] returned a half-maximal inhibitory concentration (IC50) against rat EP4 receptor of 8.5 nM. For the same compound, the “Remaining rate (%)” value in series [1] is reported as 88%.

Turning to `COCCNC(=O)c1cc2c(cc1F)OCC[C@]21C[C@H]1C(=O)Nc1cc(C#N)ccc1CCCC(=O)O` [Example 20-2, 4-{4-Cyano-2-[({(2′R,4S)-7-fluoro-6-[(2-methoxyethyl)carbamoyl]-2,3-dihydrospiro[chromene-4,1′-cyclopropan]-2′-yl}carbonyl)amino]phenyl}butanoic acid], the IC50 against rat EP4 receptor was 1.6 nM. Moreover, the “Remaining rate (%)” value in series [1] came out at 77%.

Turning to `CC(C)NC(=O)c1cc2c(cc1F)OCC[C@]21C[C@H]1C(=O)Nc1cc(C#N)ccc1CCCC(=O)O` [Example 20-5, 4-[4-Cyano-2-({[(2′R,4S)-7-fluoro-6-(isopropylcarbamoyl)-2,3-dihydrospiro[chromene-4, 1′-cyclopropan]-2′-yl]carbonyl}amino)phenyl]butanoic acid], inhibition against rat EP4 receptor was half-maximal at 9.5 nM (IC50). Also, the “Remaining rate (%)” value in series [1] came out at 100%.

With `CNC(=O)c1ccc2c(c1)OCC[C@]21C[C@H]1C(=O)Nc1cc(C#N)ccc1CCCC(=O)O` [Example 28-1, 4-[4-Cyano-2-({[(2′R,4S)-7-(methylcarbamoyl)-2,3-dihydrospiro[chromene-4,1′-cyclopropan]-2′-yl]carbonyl}amino)phenyl]butanoic acid], 6.4 nM corresponded to half-maximal inhibition against rat EP4 receptor (IC50). Also, the “Remaining rate (%)” value in series [1] amounted to 91%.

At rat EP4 receptor, `COCCNC(=O)c1ccc2c(c1)OCC[C@]21C[C@H]1C(=O)Nc1cc(C#N)ccc1CCCC(=O)O` [Example 28-2, 4-{4-Cyano-2-[({(2′R,4S)-7-[(2-methoxyethyl)carbamoyl]-2,3-dihydrospiro[chromene-4,1′-cyclopropan]-2′-yl}carbonyl)amino]phenyl}butanoic acid] registered an IC50 of 6.9 nM. In addition, the “Remaining rate (%)” value in series [1] is listed as 100%.

`CNC(=O)c1cc2c(cc1OC)OCC[C@]21C[C@H]1C(=O)Nc1cc(C#N)ccc1CCCC(=O)O` [Example 33-1, 4-[4-Cyano-2-({[(2′R,4S)-7-methoxy-6-(methylcarbamoyl)-2,3-dihydrospiro[chromene-4,1′-cyclopropan]-2′-yl]carbonyl}amino)phenyl]butanoic acid] returned an IC50 on rat EP4 receptor of 10 nM. Also, the “Remaining rate (%)” value in series [1] is 98%.
